4 compounds from ChEMBL document CHEMBL4138295, “Late-Stage Microsomal Oxidation Reduces Drug-Drug Interaction and Identifies Phosphodiesterase 2A Inhibitor PF-06815189” (ACS Med Chem Lett, 2018) can be followed below.

Data set [1] in a line: Apparent permeability in RRCK cells. The format is ADME, cell-based, Canis lupus familiaris. Conditions: dog, mdckii-le.
The target of data set [2] is cGMP-dependent 3',5'-cyclic phosphodiesterase (Homo sapiens, UniProt O00408). Nature of the data set: Inhibition of human PDE2A1 using 3',5'-[3H]cGMP as substrate measured after 30 mins by Yttrium silicate scintillation proximity assay. In general terms: SPA uses beads or plates that emit light when radiolabelled molecules are held near them.
Data set [3] can be described thus: Half life in Wistar-Han rat at 1 mg/kg, iv or 5 mg/kg, po via gavage by LC-MS/MS analysis. Format: ADME, organism-based. To be noted: in vivo.
Another data set has as its system Cavia porcellus. Nature of the data set: Inhibition of histamine-mediated increase in vascular permeability in guinea pig assessed as reduction in extravasation of Evan's blue dye-labeled albumin from blood to skin at 0.3 to 10 mg/kg, sc measured after 30 mins by spectrophotometric method. Format: functional, organism-based.
Data set [4] is described as follows: Drug recovery in Wistar-Han rat at 1 mg/kg, iv or 5 mg/kg, po via gavage measured up to 24 hrs by LC-MS/MS analysis. The format is ADME, organism-based. To be noted: in vivo, read-out: Drug recovery.
The species named for data set [5] is Homo sapiens. Briefly: Inhibition of sodium channel site 2 (unknown origin) at 10 uM relative to control.
The nature of data set [6]: Oral bioavailability in cynomolgus monkey at 5 mg/kg administered via gavage by LC-MS/MS analysis. The format is ADME, organism-based, Macaca fascicularis. To be noted: in vivo.
Data set [7] in a line: Oral bioavailability in Beagle dog at 5 mg/kg administered via gavage by LC-MS/MS analysis. The format is ADME, organism-based, Canis lupus familiaris. To be noted: in vivo.
Data set [8] concerns Rattus norvegicus. Nature of the data set: Oral bioavailability in Wistar-Han rat at 5 mg/kg administered via gavage by LC-MS/MS analysis. Format: ADME, organism-based. Conditions: in vivo.
For data set [9], the species on record is Homo sapiens. Briefly: Selectivity ratio of IC50 for PDE5A1 (unknown origin) to IC50 for human PDE2A1.
Data set [10] has as its system Cynomolgus monkey. Nature of the data set: Half life in cynomolgus monkey at 1 mg/kg, iv or po via gavage by LC-MS/MS analysis. Conditions: in vivo. The format is ADME, organism-based, Macaca fascicularis.
Data set [11] has as its system Rattus norvegicus. Nature of the data set: Volume of distribution at steady state in Wistar-Han rat at 1 mg/kg, iv or 5 mg/kg, po via gavage by LC-MS/MS analysis. Format: ADME, organism-based. To be noted: in vivo.
In data set [12] the test system is Canis familiaris. Briefly: Half life in Beagle dog at 1 mg/kg, iv or po via gavage by LC-MS/MS analysis. The format is ADME, organism-based, Canis lupus familiaris. Conditions: in vivo.
Data set [13] has as its system Cynomolgus monkey. Nature of the data set: Volume of distribution at steady state in cynomolgus monkey at 1 mg/kg, iv or po via gavage by LC-MS/MS analysis. Conditions: in vivo. Format: ADME, organism-based, Macaca fascicularis.
Data set [14] deals with Canis familiaris. Briefly: Volume of distribution at steady state in Beagle dog at 1 mg/kg, iv or po via gavage by LC-MS/MS analysis. The format is ADME, organism-based, Canis lupus familiaris. To be noted: in vivo.
Data set [15] has as its target cGMP-specific 3',5'-cyclic phosphodiesterase (Homo sapiens, UniProt O76074). Briefly: Inhibition of PDE5A1 (unknown origin) using 3',5'-[3H]cGMP as substrate measured after 30 mins by Yttrium silicate scintillation proximity assay.
A short description of data set [16]: Drug recovery in Beagle dog at 1 mg/kg, iv or po via gavage measured up to 24 hrs by LC-MS/MS analysis. Format: ADME, organism-based, Canis lupus familiaris. Conditions: in vivo, read-out: Drug recovery.
The nature of data set [17]: Drug recovery in cynomolgus monkey at 1 mg/kg, iv or po via gavage measured up to 24 hrs by LC-MS/MS analysis. Format: ADME, organism-based, Macaca fascicularis. Conditions: in vivo, read-out: Drug recovery.
Data set [18] in a line: Drug metabolism in cynomolgus monkey liver microsomes assessed as PF-06815189 formation at 20 uM measured after 50 mins by UHPLC-UV analysis. Format: ADME, Macaca fascicularis, microsome. (In general: Liver microsomes are vesicles of endoplasmic reticulum, rich in cytochrome P450 enzymes.)
Data set [19] in a line: Drug metabolism in cynomolgus monkey liver microsomes assessed as 5-(hydroxymethyl)-7-(3-(hydroxymethyl)-1-methyl-5-(4-(trifluoromethyl)phenyl)-1H-pyrazol-4-yl)-2-methylimidazo[1,5-f][1,2,4]triazin-4(3H)-one formation at 20 uM measured after 50 mins by UHPLC-UV analysis. The format is ADME, Macaca fascicularis, microsome.
Another data set has as its target Cytochrome P450 3A4 (Homo sapiens, UniProt P08684). Briefly: Binding affinity to recombinant human CYP3A4 expressed in microsomes at 1 uM after 3 to 60 mins in presence of NADPH by HPLC-MS analysis. The format is ADME.
The nature of data set [20]: Drug metabolism in cynomolgus monkey liver microsomes assessed as 7-(3-(hydroxymethyl)-1-methyl-5-(4-(trifluoromethyl)phenyl)-1H-pyrazol-4-yl)-2,5-dimethylimidazo[1,5-f][1,2,4]triazin-4(3H)-one formation at 20 uM measured after 50 mins by UHPLC-UV analysis. The format is ADME, Macaca fascicularis, microsome.

The source made the active and inactive calls. No cut-off for these calls is given here.

Sequence of cGMP-dependent 3',5'-cyclic phosphodiesterase (O00408 whole entry): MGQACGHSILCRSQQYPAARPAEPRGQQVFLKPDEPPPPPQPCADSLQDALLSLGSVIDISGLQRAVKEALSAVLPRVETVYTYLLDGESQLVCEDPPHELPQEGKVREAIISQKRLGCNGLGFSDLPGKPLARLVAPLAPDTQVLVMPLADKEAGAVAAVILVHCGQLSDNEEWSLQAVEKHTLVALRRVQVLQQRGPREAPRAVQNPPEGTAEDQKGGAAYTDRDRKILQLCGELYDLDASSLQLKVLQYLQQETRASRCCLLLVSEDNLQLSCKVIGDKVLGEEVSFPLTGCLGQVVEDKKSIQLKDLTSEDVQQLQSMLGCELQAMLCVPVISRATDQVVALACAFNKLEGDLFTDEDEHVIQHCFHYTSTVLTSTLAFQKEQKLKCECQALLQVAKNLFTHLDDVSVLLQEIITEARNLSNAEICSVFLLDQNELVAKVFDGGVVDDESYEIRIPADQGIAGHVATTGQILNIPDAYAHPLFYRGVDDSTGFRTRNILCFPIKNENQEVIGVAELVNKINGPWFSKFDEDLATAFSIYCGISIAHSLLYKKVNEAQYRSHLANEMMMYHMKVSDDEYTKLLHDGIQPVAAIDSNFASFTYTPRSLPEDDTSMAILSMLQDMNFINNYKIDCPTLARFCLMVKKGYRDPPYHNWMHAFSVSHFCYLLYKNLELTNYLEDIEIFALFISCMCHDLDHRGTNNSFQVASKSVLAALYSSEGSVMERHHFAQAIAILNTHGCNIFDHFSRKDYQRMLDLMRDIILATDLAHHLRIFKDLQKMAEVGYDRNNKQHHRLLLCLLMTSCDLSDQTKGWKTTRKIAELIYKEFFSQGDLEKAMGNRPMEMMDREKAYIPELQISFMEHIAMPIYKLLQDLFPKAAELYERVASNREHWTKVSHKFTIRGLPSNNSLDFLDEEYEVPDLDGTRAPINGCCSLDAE
Sequence of Cytochrome P450 3A4 (P08684 whole entry): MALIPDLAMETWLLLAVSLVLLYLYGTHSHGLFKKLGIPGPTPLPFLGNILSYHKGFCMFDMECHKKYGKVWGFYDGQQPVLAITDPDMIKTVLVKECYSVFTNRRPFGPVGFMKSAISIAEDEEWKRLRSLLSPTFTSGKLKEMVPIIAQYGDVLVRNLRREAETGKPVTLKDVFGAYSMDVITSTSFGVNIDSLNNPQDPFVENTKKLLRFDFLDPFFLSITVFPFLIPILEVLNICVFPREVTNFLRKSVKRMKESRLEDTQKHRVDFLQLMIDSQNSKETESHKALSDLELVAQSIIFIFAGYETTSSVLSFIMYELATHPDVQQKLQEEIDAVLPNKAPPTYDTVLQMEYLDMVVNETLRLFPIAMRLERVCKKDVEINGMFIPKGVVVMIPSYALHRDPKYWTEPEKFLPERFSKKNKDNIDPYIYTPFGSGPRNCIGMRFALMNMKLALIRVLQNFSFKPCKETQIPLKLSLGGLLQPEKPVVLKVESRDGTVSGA

As for `Cc1nn2c(-c3c(CO)nn(C)c3-c3ccc(C(F)(F)F)cc3)nc(CO)c2c(=O)[nH]1`, the Papp in data set [1] is listed as 5 ×10⁻⁶ cm/s.
As to `Cc1nn2c(-c3c(C)nn(C)c3-c3ccc(C(F)(F)F)cc3)nc(CO)c2c(=O)[nH]1`, the IC50 in data set [2] turned out to be 0.4 nM; in data set [15], 2440 nM. In data set [3], this compound had a half-life of 1.2 h. In the data set on Cavia porcellus, the inhibition entry was “Active”. Moreover, the Papp in data set [1] is 8 ×10⁻⁶ cm/s. Further, the results for the dose excreted at 24 h in data set [4], in data set [16] and in data set [17] were 22%, 48% and 26%, respectively. This compound also came in with an inhibition in the data set filed under Homo sapiens [5] of 17%. In addition, the bioavailability in data set [6] turned out to be 61%; in data set [7] it was 79%. Further, the F with Rattus norvegicus [8] amounted to 50%. In the data set filed under Homo sapiens [9], the Ratio IC50 was determined as 1000. For the same compound, the t1/2 with Cynomolgus monkey [10] was 3.6 h; in the data set with Canis familiaris [12], 4.8 h. In addition, the Vdss in the data set on Rattus norvegicus [11] worked out at 1.5 L/kg; with Cynomolgus monkey [13] it was 0.8 L/kg; in the data set with Canis familiaris [14], 0.4 L/kg.
The compound `Cc1nn2c(-c3c(CO)nn(C)c3-c3ccc(C(F)(F)F)cc3)nc(C)c2c(=O)[nH]1` returned a concentration for half-maximal inhibition (IC50) in data set [2] of 6.9 nM. Further, in data set [1], the Papp was determined as 17 ×10⁻⁶ cm/s.
`Cc1nn2c(-c3c(C)nn(C)c3-c3ccc(C(F)(F)F)cc3)nc(C)c2c(=O)[nH]1`: the Drug metabolism result in [18], in [19] and in [20] was “Metabolite_Detected” each time. It took 0.6 nM to reach half-maximal inhibition in data set [2] (IC50). The result at Cytochrome P450 3A4 was Active.

A word on the Papp: it is the rate of passage across a membrane or cell layer, normalised by area and donor concentration. The IC50 is the concentration needed to halve the response being measured. As usually defined, the half-life is the time in which the quantity being followed falls by half. In general, inhibition refers to the relative decrease from the control value, in per cent. In general, bioavailability refers to the share of a dose that reaches the circulation, judged against a reference dose that is usually intravenous.
